The numbers were not newly measured in patent US12390475B2, “Dry powder treprostinil for the treatment of pulmonary hypertension” (priority 2016, dated 2025), which cites them from elsewhere.

Where two headings read alike, the source gives them in different places.

The conditions of data set [1]: various buffer solutions at various pH levels, octanol.
For data set [2] the following is noted: aqueous titration with 20% ethanol as a co-solvent.

For `CCCCC[C@H](O)CC[C@@H]1[C@H]2Cc3cccc(OCC(=O)O)c3C[C@H]2C[C@H]1O` [Treprostinil, 2-[[(1R,2R,3aS,9aS)-2-hydroxy-1-[(3S)-3-hydroxyoctyl]-2,3,3a,4,9,9a-hexahydro-1H-cyclopenta[g]naphthalen-5-yl]oxy]acetic acid], the solubility entry (unbuffered water and low pH buffers) was “poorly soluble”. Further, the distribution coefficient result in data set [1] is “distribution into octanol layers at all pH levels”. Further, the pKa in data set [2] is 4.5.

As to `CCCCC[C@H](O)CC[C@@H]1[C@H]2Cc3cccc(OCC(=O)[O-])c3C[C@H]2C[C@H]1O.[Na+]` [Treprostinil sodium], the solubility result runs as follows: (in acetone) “very slightly soluble”; (in acetonitrile) “practically insoluble”; (in ethanol) “very soluble”; (in ethyl acetate) “practically insoluble”; (in n-hexane) “practically insoluble”; (in water) “very soluble”.
